# Molecular target: T1, KRas-G12D (Homo sapiens, UniProt P01116, G12D)
# T1 construct: insert the HiBiT tag onto the N-terminus of one or more of the endogenous KRas alleles; host or cells: AsPC-1 HiBiT-KRasG12D knock-in clone (one tagged allele, two untagged KRasG12D alleles)
# Test: HiBiT Degradation Assay (G12D), AsPC-1 HiBiT-KRasG12D cells, 24 hr
# Type: cell-based
# Settings: for Dmax: ASPC1, AsPC-1 cells, maximum degradation observed; for DC50: AsPC-1 cells
# Method in brief: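 Degradation was read after 24 hr compound exposure (0.5% DMSO, 37° C) by Nano-Glo HiBiT lytic luminescence in AsPC-1 cells carrying a HiBiT tag on one of three KRasG12D alleles. Signal relative to DMSO gave DC50 and Dmax by 4-parameter fit; alamar blue fluorescence monitored cytotoxicity.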
# T1 sequence (P01116 1-188 isoform P01116-2 G12D): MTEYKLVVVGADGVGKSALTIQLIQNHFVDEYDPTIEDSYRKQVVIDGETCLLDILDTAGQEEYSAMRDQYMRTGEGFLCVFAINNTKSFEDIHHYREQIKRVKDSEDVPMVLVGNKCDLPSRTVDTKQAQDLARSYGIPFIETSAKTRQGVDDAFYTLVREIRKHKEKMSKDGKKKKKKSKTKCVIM
SMILES,Dmax [%],DC50 [µM]
"C#Cc1c(F)ccc2cc(O)cc(-c3ncc4c(N5CC6CCC(C5)N6)nc(OCCN5CCC(CC6CCN(CC7CCN(c8ccc9c(c8)CN([C@H]8CCC(=O)NC8=O)C9=O)CC7)CC6)CC5)nc4c3F)c12 [Compound 215, (3S)-3-{5-[4-({4-[(1-{2-[(4-{3,8-diazabicyclo[3.2.1]octan-3-yl}-7-(8-ethynyl-7-fluoro-3-hydroxynaphthalen-1-yl)-8-fluoropyrido[4,3-d]pyrimidin-2-yl)oxy]ethyl}piperidin-4-yl)methyl]piperidin-1-yl}methyl)piperidin-1-yl]-1-oxo-2,3-dihydro-1H-isoindol-2-yl}piperidine-2,6-dione]",> 70,< 5.1
"C#Cc1c(F)ccc2cc(O)cc(-c3ncc4c(N5CC6CCC(C5)N6)nc(OCCN5CCC(CC6CCN(CC7CCN(c8ccc9c(c8)CN([C@@H]8CCC(=O)NC8=O)C9=O)CC7)CC6)CC5)nc4c3F)c12 [Compound 216, (3R)-3-{5-[4-({4-[(1-{2-[(4-{3,8-diazabicyclo[3.2.1]octan-3-yl}-7-(8-ethynyl-7-fluoro-3-hydroxynaphthalen-1-yl)-8-fluoropyrido[4,3-d]pyrimidin-2-yl)oxy]ethyl}piperidin-4-yl)methyl]piperidin-1-yl}methyl)piperidin-1-yl]-1-oxo-2,3-dihydro-1H-isoindol-2-yl}piperidine-2,6-dione]",> 70,< 5.1
"C#Cc1c(F)ccc2cc(O)cc(-c3ncc4c(N5CC6CCC(C5)N6)nc(OCCN5CCC(CC6CCN(CC7CCN(c8ccc9c(c8F)n(C(C)C)c(=O)n9C8CCC(=O)NC8=O)CC7)CC6)CC5)nc4c3F)c12 (centres unmarked) [Compound 217, 3-{5-[4-({4-[(1-{2-[(4-{3,8-diazabicyclo[3.2.1]octan-3-yl}-7-(8-ethynyl-7-fluoro-3-hydroxynaphthalen-1-yl)-8-fluoropyrido[4,3-d]pyrimidin-2-yl)oxy]ethyl}piperidin-4-yl)methyl]piperidin-1-yl}methyl)piperidin-1-yl]-4-fluoro-2-oxo-3-(propan-2-yl)-2,3-dihydro-1H-1,3-benzodiazol-1-yl}piperidine-2,6-dione]",> 70,< 5.1
"C#Cc1c(F)ccc2cc(O)cc(-c3ncc4c(N5CC6CCC(C5)N6)nc(OCCN5CCC6(CC5)CCN(CC5CCN(c7ccc8c(c7)n(C)c(=O)n8C7CCC(=O)NC7=O)CC5)CC6)nc4c3F)c12 (centres unmarked) [Compound 218, 3-(5-{4-[(9-{2-[(4-{3,8-diazabicyclo[3.2.1]octan-3-yl}-7-(8-ethynyl-7-fluoro-3-hydroxynaphthalen-1-yl)-8-fluoropyrido[4,3-d]pyrimidin-2-yl)oxy]ethyl}-3,9-diazaspiro[5.5]undecan-3-yl)methyl]piperidin-1-yl}-3-methyl-2-oxo-2,3-dihydro-1H-1,3-benzodiazol-1-yl)piperidine-2,6-dione]",> 70,< 5.1
"C#Cc1c(F)ccc2cc(O)cc(-c3ncc4c(N5CC6CCC(C5)N6)nc(OCCN5CCC(CN6CCN(CC7CCN(c8ccc9c(c8Cl)CN(C8CCC(=O)NC8=O)C9=O)CC7)CC6)CC5)nc4c3F)c12 (centres unmarked) [Compound 219, 3-[4-chloro-5-[4-[[4-[[1-[2-[4-(3,8-diazabicyclo[3.2.1]octan-3-yl)-7-(8-ethynyl-7-fluoro-3-hydroxy-1-naphthyl)-8-fluoro-pyrido[4,3-d]pyrimidin-2-yl]oxyethyl]-4-piperidyl]methyl]piperazin-1-yl]methyl]-1-piperidyl]-1-oxo-isoindolin-2-yl]piperidine-2,6-dione]",> 70,< 5.1
"C#Cc1c(F)ccc2cc(O)cc(-c3ncc4c(N5CC6CCC(C5)N6)nc(OCCN5CCC6(CC5)CCN(CC5CCN(c7ccc8c(c7Cl)CN(C7CCC(=O)NC7=O)C8=O)CC5)CC6)nc4c3F)c12 (centres unmarked) [Compound 220, 3-(4-chloro-5-{4-[(9-{2-[(4-{3,8-diazabicyclo[3.2.1]octan-3-yl}-7-(8-ethynyl-7-fluoro-3-hydroxynaphthalen-1-yl)-8-fluoropyrido[4,3-d]pyrimidin-2-yl)oxy]ethyl}-3,9-diazaspiro[5.5]undecan-3-yl)methyl]piperidin-1-yl}-1-oxo-2,3-dihydro-1H-isoindol-2-yl)piperidine-2,6-dione]",> 70,< 5.1
"C#Cc1c(F)ccc2cc(O)cc(-c3ncc4c(N5CC6CCC(C5)N6)nc(OCCN5CCC(CN6CCN(CC7CCN(c8ccc9c(c8)n(C)c(=O)n9C8CCC(=O)NC8=O)CC7)CC6)CC5)nc4c3F)c12 (centres unmarked) [Compound 221, 3-{5-[4-({4-[(1-{2-[(4-{3,8-diazabicyclo[3.2.1]octan-3-yl}-7-(8-ethynyl-7-fluoro-3-hydroxynaphthalen-1-yl)-8-fluoropyrido[4,3-d]pyrimidin-2-yl)oxy]ethyl}piperidin-4-yl)methyl]piperazin-1-yl}methyl)piperidin-1-yl]-3-methyl-2-oxo-2,3-dihydro-1H-1,3-benzodiazol-1-yl}piperidine-2,6-dione]",> 70,< 5.1
"C#Cc1c(F)ccc2cc(O)cc(-c3ncc4c(N5CC6CCC(C5)N6)nc(OCCN5CCC(CN6CCN(CC7CCN(c8ccc9c(c8)n(C(C)C)c(=O)n9C8CCC(=O)NC8=O)CC7)CC6)CC5)nc4c3F)c12 (centres unmarked) [Compound 222, 3-{5-[4-({4-[(1-{2-[(4-{3,8-diazabicyclo[3.2.1]octan-3-yl}-7-(8-ethynyl-7-fluoro-3-hydroxynaphthalen-1-yl)-8-fluoropyrido[4,3-d]pyrimidin-2-yl)oxy]ethyl}piperidin-4-yl)methyl]piperazin-1-yl}methyl)piperidin-1-yl]-2-oxo-3-(propan-2-yl)-2,3-dihydro-1H-1,3-benzodiazol-1-yl}piperidine-2,6-dione]",> 70,< 5.1
"C#Cc1c(F)ccc2cc(O)cc(-c3ncc4c(N5CC6CCC(C5)N6)nc(OCCN5CCC(CN6CCC(CN7CCN(c8ccc9c(c8F)CN(C8CCC(=O)NC8=O)C9=O)CC7)CC6)CC5)nc4c3F)c12 (centres unmarked) [Compound 223, 3-{5-[4-({1-[(1-{2-[(4-{3,8-diazabicyclo[3.2.1]octan-3-yl}-7-(8-ethynyl-7-fluoro-3-hydroxynaphthalen-1-yl)-8-fluoropyrido[4,3-d]pyrimidin-2-yl)oxy]ethyl}piperidin-4-yl)methyl]piperidin-4-yl}methyl)piperazin-1-yl]-4-fluoro-1-oxo-2,3-dihydro-1H-isoindol-2-yl}piperidine-2,6-dione]",> 70,< 5.1
"C#Cc1c(F)ccc2cc(O)cc(-c3ncc4c(N5CC6CCC(C5)N6)nc(OC[C@@H]5C[C@@H](OC6CCN(CC7CCN(c8ccc9c(c8F)n(C(C)C)c(=O)n9C8CCC(=O)NC8=O)CC7)CC6)CN5C)nc4c3F)c12 (stereo partly drawn) [Compound 224, 3-(5-{4-[(4-{[(3R,5S)-5-{[(4-{3,8-diazabicyclo[3.2.1]octan-3-yl}-7-(8-ethynyl-7-fluoro-3-hydroxynaphthalen-1-yl)-8-fluoropyrido[4,3-d]pyrimidin-2-yl)oxy]methyl}-1-methylpyrrolidin-3-yl]oxy}piperidin-1-yl)methyl]piperidin-1-yl}-4-fluoro-2-oxo-3-(propan-2-yl)-2,3-dihydro-1H-1,3-benzodiazol-1-yl)piperidine-2,6-dione]",> 70,< 5.1
C#Cc1c(F)ccc2cc(O)cc(-c3ccc4c(N5CC6CCC(C5)N6)nc(OCCN5CCN(CC6CCN(CC7CCN(c8ccc9c(c8)n(C)c(=O)n9C8CCC(=O)NC8=O)CC7)CC6)CC5(C)C)nc4c3F)c12 (centres unmarked) [Compound 227],,< 5.1
"C#Cc1c(F)ccc2cccc(-c3ncc4c(N5CC6CCC(C5)N6)nc(OCC5(CN6CCC(F)(CN7CCN(c8ccc9c(c8)n(C)c(=O)n9C8CCC(=O)NC8=O)CC7)CC6)CC5)nc4c3F)c12 (centres unmarked) [Compound 228, 3-[5-[4-[[1-[[1-[[4-(3,8-diazabicyclo[3.2.1]octan-3-yl)-7-(8-ethynyl-7-fluoro-1-naphthyl)-8-fluoro-pyrido[4,3-d]pyrimidin-2-yl]oxymethyl]cyclopropyl]methyl]-4-fluoro-4-piperidyl]methyl]piperazin-1-yl]-3-methyl-2-oxo-benzimidazol-1-yl]piperidine-2,6-dione]",,< 5.1
"C#Cc1c(F)ccc2cc(O)cc(-c3ncc4c(N5CC6CCC(C5)N6)nc(OCC5(CN6CCC(CC7CCN(CC8CN(c9ccc%10c(c9)n(C)c(=O)n%10C9CCC(=O)NC9=O)C8)CC7)CC6)CC5)nc4c3F)c12 (centres unmarked) [Compound 229, 3-[5-[3-[[4-[[1-[[1-[[4-(3,8-diazabicyclo[3.2.1]octan-3-yl)-7-(8-ethynyl-7-fluoro-3-hydroxy-1-naphthyl)-8-fluoro-pyrido[4,3-d]pyrimidin-2-yl]oxymethyl]cyclopropyl]methyl]-4-piperidyl]methyl]-1-piperidyl]methyl]azetidin-1-yl]-3-methyl-2-oxo-benzimidazol-1-yl]piperidine-2,6-dione]",> 70,< 5.1
"C#Cc1c(F)ccc2cc(O)cc(-c3ncc4c(N5CC6CCC(C5)N6)nc(CCCN5CCC(CC6CCN(CC7CCN(c8ccc9c(c8)n(C)c(=O)n9C8CCC(=O)NC8=O)CC7)CC6)CC5)nc4c3F)c12 (centres unmarked) [Compound 230, 3-[5-[4-[[4-[[1-[3-[4-(3,8-diazabicyclo[3.2.1]octan-3-yl)-7-(8-ethynyl-7-fluoro-3-hydroxy-1-naphthyl)-8-fluoro-pyrido[4,3-d]pyrimidin-2-yl]propyl]-4-piperidyl]methyl]-1-piperidyl]methyl]-1-piperidyl]-3-methyl-2-oxo-benzimidazol-1-yl]piperidine-2,6-dione]",,< 5.1
C#Cc1c(F)ccc2cc(O)cc(-c3ccc4c(N5CC6CCC(C5)N6)nc(OCCN5CCC(CN6CCC(CC7CCN(c8ccc9c(c8F)n(C)c(=O)n9C8CCC(=O)NC8=O)CC7)CC6)CC5)nc4c3F)c12 (centres unmarked) [Compound 231],> 70,< 5.1
C#Cc1c(F)ccc2cc(O)cc(-c3ccc4c(N5CC6CCC(C5)N6)nc(OCCN5CCC(CC6CCN(CC7CCN(c8ccc9c(c8F)n(C)c(=O)n9C8CCC(=O)NC8=O)CC7)CC6)CC5)nc4c3F)c12 (centres unmarked) [Compound 232],> 70,< 5.1

# From patent US12448399B2, “Cereblon-based KRAS degrading PROTACs and uses related thereto” (Arvinas Operations, Inc., priority 2023, dated 2025)
